Reference: patent US11124523B2, “2,6-dioxaspiro [4,5] decane derivatives and preparation method therefor and pharmaceutical applications thereof” (SHANDONG LUYE PHARMACEUTICAL CO., LTD., priority 2017, dated 2021)
Where a name gives a salt, the structure may show the parent alone.

What was measured:
[1] = molecular target: T1, human μ-subtype opioid receptor (hMOR) (Homo sapiens (Human), UniProt P35372); assay: MOR cAMP agonist activity test; format: cell-based; conditions: for Emax: maximum effect of enkephalin DAMGO was 100%
Procedure: Test 1: MOR cAMP Agonist Activity Test
1.1 Experimental Purpose: To test the cAMP agonist activity of the compounds of the present disclosure on the human μ-subtype opioid receptor (hMOR).
a. Compound samples were dissolved in DMSO to a storage concentration of 10 mM.
(§1) b. A series of diluted samples were formulated on a 384-well LDV plate. A total of 11 concentration points were obtained by 3.162-fold gradient dilution.
c. The series of diluted samples were transferred to an experimental plate (Corning-3824) by using an Echo machine, wherein 30 nL was transferred corresponding to each well.
The experiment was performed using a cAMP detection kit from Cisbio (Cisbio #62AM4PEJ).
a. Assay buffer and stimulation buffer (STB) required for the experiment were formulated.
Stimulation Buffer: formulated with the assay buffer, containing 5 μM NKH477 (CAS: 138605-00-2) and 200 μM IBMX (3-isobutyl-1-methylxanthine)
b. […] The number of cells in the well was 10,000 cells/well.
c. The experimental plate was placed in a 37° C. constant-temperature incubator for incubation. The incubation was performed for 40 minutes.
d. A cAMP standard concentration curve was prepared. The first concentration point was at 2848 nM, and a total of sixteen detection concentrations were obtained by 4-fold gradient dilution. There were three replicates for each concentration point.
e. The cAMP detection kit from Cisbio was provided therein with a d2-labeled cAMP reagent (d2 reagent) and an Eu-labeled cAMP antibody reagent (Crypate reagent). The above two reagents were formulated according to the kit instructions, and then added to the sample experimental plate and to the cAMP standard concentration experimental plate, respectively. It was necessary to add 5 μL of the d2 reagent and then 5 μL of the Cryptate reagent to each well.
f. After the experimental plates were left at room temperature for 60 minutes, the experimental plates were read on the Envision.

[2] = molecular target: T1, human μ-subtype opioid receptor (hMOR); assay: MOR β-arrestin-2 agonist activity test; format: cell-based; conditions: for Emax: maximum effect of enkephalin DAMGO was 100%, about 0% = no actual agonist activity
Procedure: Test 2: β-Arrestin-2 Agonist Activity Test
2.1 Experimental Purpose: To test the β-arrestin-2 agonist activity of the compounds of the present disclosure on the human μ-subtype opioid receptor (hMOR).
a. All samples were dissolved in DMSO to a storage concentration of 10 mM.
as §1
c. The series of diluted samples were transferred to an experimental plate by using an Echo machine, wherein 60 nL of the compound was transferred corresponding to each well.
d. 60 nL of 3.33 mM DAMGO (as HPE) and 60 nL of DMSO (as ZPE) were transferred to the corresponding positions on the experimental plate by using the Echo machine.
The experiment was performed using PathHunter Detection Kit from DiscoveRX Cooperation (DiscoveRX #93-0213C3)
a. Assay buffer and PathHunter detection reagent required for the experiment were formulated.
Assay Buffer: 1×DPBS buffer
PathHunter Detection Reagent: The kit was provided therein with three constituents.
c. The experimental plate was centrifuged at 300 rpm for 30 s and incubated at room temperature for 2 hours.
d. 6 μL of the PathHunter detection reagent was added to each well of the experimental plate.
e. The experimental plate was centrifuged at 300 rpm for 30 seconds, then left at room temperature for 60 minutes, and then read on the Envision.

[3] = Metabolic stability in liver microsomes; format: in vitro ADME; conditions: pH 7.4; human liver microsomes 0.5 mg protein/mL; 45 mg microsome protein/g liver, 20 g liver/kg; read-out: Intrinsic Clearance CLint(liver) in Human Liver
Procedure: Test 3: Metabolic Stability in Liver Microsomes
3.1 Experimental Purpose: To test the metabolic stability of the compounds of the present disclosure in human liver microsomes
a. All samples as well as testosterone, diclofenac and propafenone acting as reference substances were dissolved in DMSO to a storage concentration of 10 mM.
b. Intermediate Solution: 5 μL of the substance to be tested or the reference substance was diluted with 45 μL of DMSO (with 450 μL of 1:1 methanol/water).
c. Working Solution: the intermediate solution was diluted with 450 μL of 100 mM potassium phosphate buffer solution (pH 7.4).
Assay Buffer: 100 mM potassium phosphate buffer (pH 7.4) • 10 mM MgCl2
Liver Microsome Solution (final concentration: 0.5 mg protein/mL):
Human liver microsomes, obtained from BD, Cat No. 452117, Lot No. 38291
b. 10 μL of the working solution containing the substance to be tested or the reference substance was added to each of plates (T0, T5, T10, T20, T30, T60, NCF60).
c. The liver microsome solution was dispensed into a 96-well plate in an amount of 680 μL/well, then 80 was added, and then T was added to each of the plates. The above incubation plate was placed at 37° C. and pre-incubated for approximately 10 minutes.
d. 10 μL of 100 mM potassium phosphate buffer was added to each well in the NCF60 plate.
e. After the pre-incubation was finished, the NADPH regeneration system working solution was dispensed into the 96-well plate in an amount of 90 μL/well, and then added to each of the plates in an amount of 10 μL/well to start the reaction.
f. The plates were incubated for an appropriate time (e.g., 5, 10, 20, 30, or 60 minutes).
g. The stop solution (refrigerated at 4° C., containing 100 ng/mL Tolbutamide and 100 ng/mL Labetalol) was added to each sample well in an amount of 300 μL/well.
h. The sample plates were shaken well for about 10 minutes and centrifuged at 4,000 rpm for 20 minutes at 4° C. During the centrifugation, 300 μL of HPLC water was added to each well, and 100 μL of the supernatant was taken for LC-MS/MS analysis.
T1/2 and Clint(mic) were calculated by the following formula: […]
Each gram of liver contained 45 mg of microsome protein, and the liver weight was 20 g/kg in a human.
Ct was the concentration at time t, t was the incubation time, C0 was the concentration at time 0, Ke was an elimination rate constant, Clint(mic) was the intrinsic clearance in liver microsomes, and Clint(liver) was the intrinsic clearance in liver. CLint(mic)=0.693/half-life/mg of microsome protein per mL(concentration of microsomes during incubation) CLint(liver)=CLint(mic)×mg of microsome protein/g of liver weight×a ratio of liver weight to body weight 3.4 Test Results

[4] = Pharmacokinetics of the compounds in rats; format: in vivo, rat
Procedure: 6.1 Experimental Purpose: To measure, using a LC/MS/MS method, the medicament concentrations of the compound in plasma and specific tissues at different time points after the compound was administered by a single intravenous injection (IV) to 7-9-week-old male SD rats used as test animals, to study on the pharmacokinetic behavior of the compound of the present disclosure in rats, and to evaluate the pharmacokinetic characteristics thereof. 6.2 Compound Formulation
Each of them was formulated at a concentration of 1 mg/mL and was used for IV (intravenous injection) administration.
The actual weights of the rats were weighed on the day of administration and volumes to be administered were calculated. The above formulated solutions to be administered were administered by injection into caudal veins of rats.
About 0.2 mL of whole blood samples were collected by means of jugular vein puncture at the time set in the experimental protocol, and the actual blood collection time was recorded in the experimental records. All the blood samples were added to labeled plastic centrifuge tubes to which K2-EDTA anticoagulant was added in advance. After the blood samples were collected, they were centrifuged at 3,000 g for 10 minutes at 4° C. to prepare the supernatant plasma, and the plasma was stored at −20° C. or a lower temperature for LC-MS/MS analysis.
The concentrations of the compounds in rat plasma were measured by using high-performance liquid chromatography-tandem mass spectrometry (LC-MS/MS). The retention durations of the compounds and internal standard, chromatogram acquisition, and integration of chromatograms were processed using the software Analyst (Applied Biosystems), and data statistics were processed using the software Watson LIMS (Thermo Fisher Scientific) or Analyst (Applied Biosystems). The plasma concentration was processed using a non-compartmental model of WinNonlin™ Version 6.3 (Pharsight, Mountain View, Calif.) which was a pharmacokinetic software, and the pharmacokinetic parameters were calculated using a linear logarithmic trapezoidal method.

[5] = >30000 nM = greater than the highest detection concentration, read-out: MOR β-arrestin-2 EC50

SMILES | EC50 [1] [nM] | Emax [1] [%] | EC50 [2, 5] [nM] | Emax [2] [%] | further results
COc1ccsc1CNCC[C@@]1(c2ccc(F)cc2)CCO[C@]2(CCOC2)C1 [(+)-3] | 3 | 82 | > 30000 | ~0 | CLint scaled [3]: 39 mL/min/kg
Fc1ccc([C@]2(CCNCc3scc4c3CCC4)CCO[C@]3(CCOC3)C2)nc1 [(+)-5] |  | 96.5 | > 30000 | ~0 | Apparent Clearance Cl ([4]; male SD rats, single IV, mg/Kg: Comparative Compound 1 1.80, (+)-5 2.40, (+)-16 1.76, HCl salt of (+)-23 1.71): 58.9 mL/min/kg; Vd ([4]; male, SD, rat, plasma, iv, read-out: Apparent Distribution Volume Vd): 3.6 L/kg; AUC(0-inf) ([4]; male, SD, rat, plasma, iv, read-out: Area under the Curve AUC0-inf): 1.4 µM·h; half-life ([4]; male, SD, rat, plasma, iv, read-out: Hal-life T1/2 (converted)): 54 min; C0 ([4]; male, SD, rat, plasma, iv, read-out: Initial Concentration C0): 1810 nM; Brain/Plasm Ratio B/P ratio ([4]; rats, IV, sampling point […], mg/Kg: Comparative Compound 1 0.56, (+)-5 2.40, (+)-16 1.76, HCl salt of (+)-23 1.71): 2.19
Fc1ccnc([C@]2(CCNCc3scc4c3CCC4)CCO[C@]3(CCOC3)C2)c1 [(+)-6] | 1.8 | 86.5 | > 30000 | ~0 | CLint scaled [3]: 86 mL/min/kg
c1ccc([C@]2(CCNCc3scc4c3COC4)CCO[C@]3(CCOC3)C2)nc1 [(+)-7] | 14.1 | 90.4 | > 30000 | ~0 | 
Cc1cc(C)cc(CNCC[C@@]2(c3ccccn3)CCO[C@]3(CCOC3)C2)c1 [(+)-10] | 11.6 | 96.6 | > 30000 | ~0 | 
c1ccc([C@]2(CCNCc3cccc4c3CCCC4)CCO[C@]3(CCOC3)C2)nc1 [(+)-11] | 1.4 | 87.2 | > 30000 | ~0 | CLint scaled [3]: 72.5 mL/min/kg
Cc1ccsc1CNCC[C@@]1(c2ccc(F)cc2)CCO[C@]2(CCOC2)C1 [(+)-13] | 4.1 | 61.2 | > 30000 | ~0 | 
Fc1ccc([C@]2(CCNCc3cccs3)CCO[C@]3(CCOC3)C2)cc1 [(+)-14] |  |  |  | ~0 | 
Fc1ccc([C@]2(CCNCc3ccc(Cl)cc3)CCO[C@]3(CCOC3)C2)nc1 [(+)-17] | 8.9 | 78.5 | > 30000 | ~0 | 
c1ccc([C@]2(CCNCc3cccc4c3CCC4)CCO[C@]3(CCOC3)C2)nc1 [(+)-19] | 4.5 | 69.9 | > 30000 | ~0 | 
Clc1ccc(CNCC[C@@]2(c3ccccn3)CCO[C@]3(CCOC3)C2)cc1Cl [(+)-20] | 3.1 | 99.6 | > 30000 | ~0 | 
Clc1cc(Cl)cc(CNCC[C@@]2(c3ccccn3)CCO[C@]3(CCOC3)C2)c1 [(+)-21] | 2.2 | 92.3 | > 30000 | ~0 | 
c1ccc([C@]2(CCN[C@H]3CCc4ccccc43)CCO[C@]3(CCOC3)C2)nc1 [(+)-25] |  | 90 | > 30000 | ~0 | 
Fc1ccc([C@]2(CCN[C@H]3CCCc4ccccc43)CCO[C@]3(CCOC3)C2)nc1 [(+)-26] | 0.2 | 96 | > 30000 | ~0 | 
c1ccc([C@]2(CCN[C@H]3CCCc4ccccc43)CCO[C@]3(CCOC3)C2)nc1 [(+)-27] | 0.8 | 91 | > 30000 | ~0 | 
Fc1ccc([C@]2(CCNCc3scc4c3CCC4)CCO[C@]3(CCOC3)C2)cc1 [Formate Salt of (+)-4] | 0.07 |  | > 30000 | ~0 | 
Fc1ccc([C@]2(CCNCc3scc4c3COC4)CCO[C@]3(CCOC3)C2)cc1 [Hydrochloride Salt of (+)-12] | 6.8 |  | > 30000 | ~0 | 
Fc1ccc([C@]2(CCNCc3cc(Cl)cc(Cl)c3)CCO[C@]3(CCOC3)C2)nc1 [Hydrochloride Salt of (+)-24] | 0.2 | 95 | > 30000 | ~0 | 
c1ccc([C@]2(CCNCc3cc4c(s3)CCC4)CCOC3(CCCC3)C2)nc1 [compound 2, reference compound] |  | 105 |  | 35.2 | EC50 [2]: 500 nM
